Test results reported in patent publication US20250295648A1 (priority 2024, published 2025).

Experiments:
PD patients with LID = experiment: Epworth Sleepiness Scale (ESS); format: in vivo, human; conditions: for ESS, mean change from baseline: per-protocol set
Excerpt: The ESS is a self-administered questionnaire with 8 questions. Respondents are asked to rate, on a 4-point scale (0-3), their usual chances of dozing off or falling asleep while engaged in 8 different activities. The ESS score (the sum of 8 item scores, 0-3) can range from 0 to 24. Ratings are based on the previous month, or in the case of this study, the intervening period since the previous clinic visit (about 3 weeks).

[1] = tested on: L-DOPA-induced dyskinesia in rat; conditions: 2-week treatment period; cited from earlier work
[2] = tested on: L-DOPA-induced dyskinesia in Parkinson's disease patients; experiment: Unified Dyskinesia Rating Scale (UDysRS) after 150% L-DOPA challenge; conditions: for UDysRS Part 3+4 score, change from baseline: PPS; for UDysRS Parts 3 and 4 most severe, collected value, mean / UDysRS Parts 3 and 4 most severe, collected value, median / UDysRS Parts 3 and 4 most severe, absolute change from baseline, mean / UDysRS Parts 3 and 4 most severe, absolute change from baseline, median / UDysRS Parts 3 and 4 most severe, relative change from baseline (%), mean / UDysRS Parts 3 and 4 most severe, relative change from baseline (%), median: most severe session
Procedure: Patients were rated for dyskinesia at baseline and on days 28 (at end of up-titration period) and 42 (end of stable dosing period). Because the level of dyskinesia experienced by patients can vary over time, they were given 150% (i.e., 1.5×) of their regular L-DOPA dose (up to a maximum of 250 mg) as a challenge 30 min before each dyskinesia assessment to improve comparability between patients and between visits. Patients were filmed 30, 60 and 90 min after dosing with L-DOPA (˜5 min of filming each time). LID was assessed using the Unified Dyskinesia Rating Scale (UDysRS). Changes from baseline are shown for total score (i.e., Parts 1 to 4), for total objective score (i.e., Parts 3+4), and for the sum of Part 3 objective impairment assessment scores. Because objective LID assessment was carried out at 3 time-points (30, 60 and 90 min) following L-DOPA challenge, the above parameters were analyzed based on the most severe of the three scores as well as on the average score of the 3 time points.
The patient took 150% of their normal L-DOPA dose 30 minutes prior to the start of efficacy assessments (UDysRS) at Day 1 (Visit 2), Day 28 (Visit 6) and Day 42 (Visit 7).
The UDysRS is a rating instrument designed to assess the core features of dyskinesia in Parkinson's Disease. The UDysRS consists of 4 parts: • r. Part I, historical disability with regard to the patient's perceptions of the impact on activities of ADL of on-dyskinesia. • s. Part II, historical disability with regard to the patient's perceptions of the impact on ADL of off-dystonia. • t. Part III, objective impairment, which assesses severity of dyskinesia, affected body parts, and type of impairment (choreic vs. dystonic). • u. Part IV, objective disability, based on an evaluation of Part III activities.
Each item in the UDysRS is scored from 0 to 4, with a possible maximum total score of 104.
The UDysRS assessment would be performed at baseline (Day 1, Visit 2), Day 28 and Day 42 (Visits 6 and 7) starting approximately 30 minutes after the L-DOPA challenge on these days.
The data for all 3 assessments performed at each visit would be entered in the eCRF and the Investigator will highlight which of the assessments, corresponding to the assessment where the patient had most severe dyskinesia, that would be used in the descriptive summaries of data.
Change from baseline in the UDysRS total score to Visit 6 (Day 28) and Visit 7 (Day 42) respectively would be summarized using descriptive statistics. […] The same analysis would be done for UDysRS total objective score Part III and IV only.
The baseline value of the dependent variable has been included in the model as a continuous covariate.

[3] = 5 patients co-treated with amantadine
[4] = Full analysis set, Visit 2 Baseline
[5] = Full analysis set, Visit 6 Clinic Efficacy Visit
[6] = Full analysis set, Visit 7 Clinic Efficacy Visit
[7] = Full analysis set, average of assessment sessions Part 3 and Part 4, Visit 2 Baseline
[8] = Full analysis set, average of assessment sessions Part 3 and Part 4, Visit 6 Clinic Efficacy Visit
[9] = Full analysis set, average of assessment sessions Part 3 and Part 4, Visit 7 Clinic Efficacy Visit
[10] = Full analysis set, average of assessment sessions, highest item score, Visit 2 Baseline
[11] = Full analysis set, average of assessment sessions, highest item score, Visit 6 Clinic Efficacy Visit
[12] = Full analysis set, average of assessment sessions, highest item score, Visit 7 Clinic Efficacy Visit
[13] = Full analysis set, highest item score, Visit 2 Baseline
[14] = Full analysis set, highest item score, Visit 6 Clinic Efficacy Visit
[15] = Full analysis set, highest item score, Visit 7 Clinic Efficacy Visit
[16] = Visit 2 Baseline, per protocol analysis set, N = 15

SMILES: Cc1ccc(CNCC2(F)CCN(C(=O)c3ccc(F)c(Cl)c3)CC2)nc1 [NLX-112, (3-chloro-4-fluoro-phenyl)-[4-fluoro-4-{[(5-methyl-pyridin-2-ylmethyl)-amino]-methyl}piperidin-1-yl]methanone]
- sleepiness (ESS) (PD patients with LID; Days 28 or 42): no consistent statistically significant effect
- ESS, mean (PD patients with LID; per-protocol set (n = 15), Baseline): 8.3
- ESS, mean change from baseline (PD patients with LID; Δ D 28 (end of up-titration)): −1.1
- ESS, mean change from baseline (PD patients with LID; Δ D 42 (end of stable dosing)): −0.9
- antidyskinetic efficacy against L-DOPA-induced dyskinesia [1]: did maintain its antidyskinetic efficacy
- UDysRS Part 3 + 4, mean change from baseline [2, 3]: −4.4
- UDysRS Total, mean change from baseline [2, 3]: −4.0
- UDysRS Part 3+4 score, change from baseline ([2]; Day 28, average of 3 assessments (30, 60, 90 min), p=0.0065): −2.49 points
- UDysRS total score (Parts 1-4), change from baseline ([2]; Day 28, most severe assessment, PPS n=15, p=0.0281 vs baseline): −4.1 points
- UDysRS Part 3+4 score, change from baseline ([2]; Day 28, most severe assessment, not statistically significant): −1.7 points
- UDysRS sum of Part 3 items, average of all 3 assessments, vs baseline ([2]; Day 28 and Day 42, within NLX-112 group): significant reduction
- UDysRS total score or total objective (Parts 3 and 4) score, change from baseline, NLX-112 vs placebo ([2]; Day 28 or Day 42): no significant differences
- UDysRS Part 3+4 score, change from baseline ([2]; Day 42, average of 3 assessments (30, 60, 90 min), p=0.0005): −3.31 points
- UDysRS total score (Parts 1-4), change from baseline ([2]; Day 42, most severe assessment, PPS n=15, p=0.0016 vs baseline): −6.3 points
- UDysRS Part 3+4 score, change from baseline ([2]; Day 42, most severe assessment, p=0.0038 vs baseline): −3.1 points
- UDysRS Parts 1, 2, 3, and 4 most severe, collected value, mean [2, 4]: 31.8
- UDysRS Parts 1, 2, 3, and 4 most severe, collected value, median [2, 4]: 31.0
- UDysRS Parts 1, 2, 3, and 4 most severe, absolute change from baseline, mean [2, 5]: −4.1
- UDysRS Parts 1, 2, 3, and 4 most severe, absolute change from baseline, median [2, 5]: −2.0
- UDysRS Parts 1, 2, 3, and 4 most severe, collected value, mean [2, 5]: 27.5
- UDysRS Parts 1, 2, 3, and 4 most severe, collected value, median [2, 5]: 28.0
- UDysRS Parts 1, 2, 3, and 4 most severe, relative change from baseline (%), mean [2, 5]: −10.2%
- UDysRS Parts 1, 2, 3, and 4 most severe, relative change from baseline (%), median [2, 5]: −6.45%
- UDysRS Parts 1, 2, 3, and 4 most severe, absolute change from baseline, mean [2, 6]: −6.3
- UDysRS Parts 1, 2, 3, and 4 most severe, absolute change from baseline, median [2, 6]: −8.0
- UDysRS Parts 1, 2, 3, and 4 most severe, collected value, mean [2, 6]: 25.3
- UDysRS Parts 1, 2, 3, and 4 most severe, collected value, median [2, 6]: 24.0
- UDysRS Parts 1, 2, 3, and 4 most severe, relative change from baseline (%), mean [2, 6]: −19.0%
- UDysRS Parts 1, 2, 3, and 4 most severe, relative change from baseline (%), median [2, 6]: −25.8%
- UDysRS Parts 1, 2, 3, and 4 average, collected value, mean [2, 7]: 30.43
- UDysRS Parts 1, 2, 3, and 4 average, collected value, median [2, 7]: 29.67
- UDysRS Parts 1, 2, 3, and 4 average, absolute change from baseline, mean [2, 8]: −4.82
- UDysRS Parts 1, 2, 3, and 4 average, absolute change from baseline, median [2, 8]: −3.00
- UDysRS Parts 1, 2, 3, and 4 average, collected value, mean [2, 8]: 25.33
- UDysRS Parts 1, 2, 3, and 4 average, collected value, median [2, 8]: 25.33
- UDysRS Parts 1, 2, 3, and 4 average, relative change from baseline (%), mean [2, 8]: −9.33%
- UDysRS Parts 1, 2, 3, and 4 average, relative change from baseline (%), median [2, 8]: −10.6%
- UDysRS Parts 1, 2, 3, and 4 average, absolute change from baseline, mean [2, 9]: −6.51
- UDysRS Parts 1, 2, 3, and 4 average, absolute change from baseline, median [2, 9]: −7.67
- UDysRS Parts 1, 2, 3, and 4 average, collected value, mean [2, 9]: 23.64
- UDysRS Parts 1, 2, 3, and 4 average, collected value, median [2, 9]: 23.00
- UDysRS Parts 1, 2, 3, and 4 average, relative change from baseline (%), mean [2, 9]: −19.5%
- UDysRS Parts 1, 2, 3, and 4 average, relative change from baseline (%), median [2, 9]: −21.9%
- UDysRS Parts 3 and 4 average, collected value, mean [2, 10]: 13.98
- UDysRS Parts 3 and 4 average, collected value, median [2, 10]: 13.17
- UDysRS Parts 3 and 4 average, absolute change from baseline, mean [2, 11]: −2.49
- UDysRS Parts 3 and 4 average, absolute change from baseline, median [2, 11]: −1.67
- UDysRS Parts 3 and 4 average, collected value, mean [2, 11]: 11.60
- UDysRS Parts 3 and 4 average, collected value, median [2, 11]: 10.33
- UDysRS Parts 3 and 4 average, relative change from baseline (%), mean [2, 11]: −17.3%
- UDysRS Parts 3 and 4 average, relative change from baseline (%), median [2, 11]: −20.0%
- UDysRS Parts 3 and 4 average, absolute change from baseline, mean [2, 12]: −3.31
- UDysRS Parts 3 and 4 average, absolute change from baseline, median [2, 12]: −3.33
- UDysRS Parts 3 and 4 average, collected value, mean [2, 12]: 10.78
- UDysRS Parts 3 and 4 average, collected value, median [2, 12]: 9.67
- UDysRS Parts 3 and 4 average, relative change from baseline (%), mean [2, 12]: −25.3%
- UDysRS Parts 3 and 4 average, relative change from baseline (%), median [2, 12]: −31.5%
- UDysRS Parts 3 and 4 most severe, collected value, mean [2, 13]: 15.3
- UDysRS Parts 3 and 4 most severe, collected value, median [2, 13]: 13.5
- UDysRS Parts 3 and 4 most severe, absolute change from baseline, mean [2, 14]: −1.7
- UDysRS Parts 3 and 4 most severe, absolute change from baseline, median [2, 14]: −1.0
- UDysRS Parts 3 and 4 most severe, collected value, mean [2, 14]: 13.8
- UDysRS Parts 3 and 4 most severe, collected value, median [2, 14]: 12.0
- UDysRS Parts 3 and 4 most severe, relative change from baseline (%), mean [2, 14]: −15.8%
- UDysRS Parts 3 and 4 most severe, relative change from baseline (%), median [2, 14]: −8.33%
- UDysRS Parts 3 and 4 most severe, absolute change from baseline, mean [2, 15]: −3.1
- UDysRS Parts 3 and 4 most severe, absolute change from baseline, median [2, 15]: −4.0
- UDysRS Parts 3 and 4 most severe, collected value, mean [2, 15]: 12.4
- UDysRS Parts 3 and 4 most severe, collected value, median [2, 15]: 11.0
- UDysRS Parts 3 and 4 most severe, relative change from baseline (%), mean [2, 15]: −21.0%
- UDysRS Parts 3 and 4 most severe, relative change from baseline (%), median [2, 15]: −31.6%
- UDysRS Parts 1, 2, 3, and 4 average, collected value, mean [2, 16]: 30.16
- UDysRS Parts 1, 2, 3, and 4 average, collected value, median [2, 16]: 29.33
- UDysRS Parts 1, 2, 3, and 4 most severe, collected value, mean [2, 16]: 31.6
- UDysRS Parts 1, 2, 3, and 4 most severe, collected value, median [2, 16]: 31.0
- UDysRS Parts 3 and 4 average, collected value, mean [2, 16]: 14.09
